The term IC50 denotes the concentration that gives 50% inhibition.

Calcium-dependent protein kinase 4 (Plasmodium falciparum (isolate 3D7)), sequence (Q8IBS5 whole entry, looked up): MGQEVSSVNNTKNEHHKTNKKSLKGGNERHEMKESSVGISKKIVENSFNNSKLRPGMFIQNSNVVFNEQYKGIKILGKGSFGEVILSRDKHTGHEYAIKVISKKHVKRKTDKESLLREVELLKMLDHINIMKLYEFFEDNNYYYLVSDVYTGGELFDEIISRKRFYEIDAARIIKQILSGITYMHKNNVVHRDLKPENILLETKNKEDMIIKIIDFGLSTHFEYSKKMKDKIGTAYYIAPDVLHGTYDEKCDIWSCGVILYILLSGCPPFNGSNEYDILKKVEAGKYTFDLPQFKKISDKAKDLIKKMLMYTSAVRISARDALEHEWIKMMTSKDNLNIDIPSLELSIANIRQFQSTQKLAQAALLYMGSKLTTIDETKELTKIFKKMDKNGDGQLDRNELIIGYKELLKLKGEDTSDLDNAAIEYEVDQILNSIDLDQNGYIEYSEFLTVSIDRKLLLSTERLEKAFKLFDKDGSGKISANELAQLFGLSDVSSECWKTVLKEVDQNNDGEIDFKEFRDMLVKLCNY

This experiment concerns the target Calcium-dependent protein kinase 4 (Plasmodium falciparum (isolate 3D7)) (UniProt Q8IBS5). Put plainly: PfCDPK4 kinase inhibitors, biochemical, TCAMS library (AID 1159588). Particulars: recombinant PfCDPK4, Kinase-Glo ATP depletion luminescence. (In general: Kinase-Glo measures the ATP left after a reaction by luminescence.)
For `O=C(Nc1cccc(-c2nn3ccccc3c2-c2ccnc(Nc3ccc(NCCCN4CCOCC4)c(F)c3)n2)c1)c1c(F)cccc1F`, the IC50 is 0.315 µM.

As to `Cc1cccc(Nc2nc(NCCCCN)nc3cc[nH]c(=O)c23)c1`, the IC50 is 0.166 µM.

As for `COc1cc(Nc2nccc(-c3c(-c4cccc(NC(=O)c5c(F)cccc5F)c4)nn4ccccc34)n2)cc(OC)c1OC`, the IC50 was 0.077 µM.

For the compound `O=c1[nH]ccc2nc(N[C@@H]3CCNC3)nc(Nc3cc(Cl)cc(Cl)c3)c12`, the half-inhibitory concentration (IC50) is 0.446 µM.

In the case of `Cc1[nH]nc2ccc(-c3cc(OC[C@@H](N)Cc4ccccc4)cnc3-c3cc4ccccc4s3)cc12`, the IC50 was 0.563 µM.

Take `CCn1c(-c2nonc2N)nc2c(-c3cccc(Cl)c3)ncc(OCCCNCc3cnc(C)nc3N)c21`: the IC50 is 0.145 µM.

Take `CNC(=O)c1ccccc1Nc1nc(Nc2ccc(CCN3CCN(C)CC3)cc2)ncc1Cl`: the IC50 was 0.361 µM.

Turning to `NS(=O)(=O)c1cccc(Nc2nc(N[C@@H]3CCNC3)nc3cc[nH]c(=O)c23)c1`, the IC50 is 0.135 µM.

On to `O=C(Nc1ccccc1)Nc1cccc(-c2nn3c(OCCN4CCCC4)cccc3c2-c2ccncc2)c1`, for which the IC50 is 0.775 µM.

In the case of `CN1CCN(c2ccc(Nc3ncc(C#N)c(Nc4ccccc4C(N)=O)n3)cc2)CC1`, the IC50 is 0.188 µM.

Turning to `CS(=O)(=O)Cc1ccc(Nc2nccc(-c3c(-c4cccc(NC(=O)c5c(F)cccc5F)c4)nn4ccccc34)n2)cc1`, the 50% inhibitory concentration (IC50) is 0.052 µM.

On to `CC(C)(CN)c1cc(-c2ccc(Cl)c(O)c2)c(-c2ccncc2)o1`, for which the half-maximal inhibitory concentration (IC50) was 0.433 µM.

For `O=C(Nc1cccc(-c2nn3ncccc3c2-c2ccnc(Nc3cccc(-c4cnco4)c3)n2)c1)c1c(F)cccc1F`, the IC50 was 0.145 µM.

As for `O=C(Nc1cccc(-c2nn3ncccc3c2-c2ccnc(Nc3ccccc3)n2)c1)c1c(F)cccc1F`, the IC50 was 0.352 µM.

Take `NS(=O)(=O)CCc1cccc(Nc2nccc(-c3c(-c4cccc(NC(=O)c5c(F)cccc5F)c4)nn4ccccc34)n2)c1`: the IC50 is 0.029 µM.

In the case of `CCn1c(-c2nonc2N)nc2c(-c3cccc(NC(=O)Nc4ccccc4OC)c3)ncc(OCCCN)c21`, the IC50 was 0.706 µM.

As to `CCn1c(-c2nonc2N)nc2c(-c3cccc(NC(=O)Nc4ccc(C(F)(F)F)cc4)c3)ncc(OCCCN)c21`, the IC50 is 0.03 µM.

In the case of `NCC(NC(=O)c1ccc(-c2c[nH]c3ncccc23)s1)c1ccccc1` (stereo not given), the IC50 is 0.473 µM.

For `CCn1c(-c2nonc2N)nc2c(-c3cccc(NC(=O)Nc4ccc(C#N)cc4)c3)ncc(OCCCN)c21`, the IC50 was 0.084 µM.

As for `CC(=O)Nc1cccc(Nc2nccc(-c3c(-c4cccc(NC(=O)c5c(F)cccc5F)c4)nn4ncccc34)n2)c1`, the IC50 was 0.026 µM.

With `O=C(Nc1cccc(-c2nn3ccccc3c2-c2ccnc(Nc3ccc(-c4ccn[nH]4)cc3)n2)c1)c1c(F)cccc1F`, the IC50 is 0.307 µM.

With `O=C(Nc1cccc(-c2nn3ccccc3c2-c2ccnc(Nc3ccc(C(=O)N4CCOCC4)cc3)n2)c1)c1c(F)cccc1F`, the IC50 was 0.311 µM.

For `CCn1c(-c2nonc2N)nc2c(-c3cccc(NC(=O)NC45CC6CC(CC(C6)C4)C5)c3)ncc(OCCCN)c21`, the IC50 was 0.158 µM.

`Cc1[nH]c(/C=C2\C(=O)Nc3ccc(S(=O)(=O)Cc4c(Cl)cccc4Cl)cc32)c(C)c1C(=O)N1CCC[C@@H]1CN1CCCC1`: the IC50 is 0.021 µM.

Consider `CN1CCN(c2ccc(Nc3nccc(-c4c(-c5cccc(NC(=O)c6c(F)cccc6F)c5)nn5ccccc45)n3)cc2)CC1`, for which the IC50 is 0.075 µM.

Regarding `CCn1c(-c2nonc2N)nc2c(-c3cccc(NC(=O)Nc4ccccc4Cl)c3)ncc(OCCCN)c21`, the IC50 is 0.138 µM.

As to `CCN(CC)CCCOc1ccc(Nc2nccc(-c3c(-c4cccc(NC(=O)c5c(F)cccc5F)c4)nn4ccccc34)n2)cc1F`, the IC50 was 0.086 µM.

As for `CC(c1cccc(Nc2nccc(-c3c(-c4cccc(NC(=O)c5c(F)cccc5F)c4)nn4ncccc34)n2)c1)S(C)(=O)=O` (stereo not given), the IC50 is 0.024 µM.

Consider `CCn1c(-c2nonc2N)nc2c(-c3ccccc3)ncc(OCCCNCCCN3CCOCC3)c21`, for which the IC50 is 0.038 µM.

With `NS(=O)(=O)c1cccc(Nc2nccc(-c3c(-c4cccc(NC(=O)c5c(F)cccc5F)c4)nn4ccccc34)n2)c1`, the IC50 is 0.051 µM.

Take `CC(c1cccc(Nc2nccc(-c3c(-c4cccc(NC(=O)c5c(F)cccc5F)c4)nn4ccccc34)n2)c1)S(C)(=O)=O` (stereo not given): the IC50 is 0.09 µM.

For `COCCOc1ccc(Nc2nccc(-c3c(-c4cccc(NC(=O)c5c(F)cccc5F)c4)nn4ccccc34)n2)cc1Cl`, the IC50 was 0.853 µM.

With `Cc1cccc(Nc2nc(N[C@@H]3CCCNC3)nc3cc[nH]c(=O)c23)c1`, the IC50 was 0.076 µM.

For the compound `CCn1c(-c2nonc2N)nc2c(-c3cccc(Cl)c3)ncc(OCCCNCCc3cnc[nH]3)c21`, the half-inhibitory concentration (IC50) is 0.046 µM.

As to `CCN(CC)CCNC(=O)c1ccc(N=Cc2c(O)[nH]c3ccc(S(=O)(=O)Cc4c(Cl)cccc4Cl)cc23)cc1`, the IC50 is 0.073 µM.

With `Cn1cccc1C(=O)Nc1cccc(-c2nn3ccccc3c2-c2ccnc(Nc3ccc4c(c3)OCCO4)n2)c1`, the IC50 was 0.191 µM.

In the case of `Cc1cc(Nc2ncc(C#N)c(Nc3ccccc3C(N)=O)n2)ccc1N1CCN(C)CC1`, the IC50 is 0.089 µM.

Consider `CCn1c(-c2nonc2N)nc2c(-c3cccc(NC(=O)Nc4cccc(C(F)(F)F)c4)c3)ncc(OCCCN)c21`, for which the IC50 is 0.342 µM.

With `NC[C@H](CC1CCCCC1)NC(=O)c1ccc(-c2ccnc3[nH]ccc23)s1`, the half-maximal inhibitory concentration (IC50) was 0.527 µM.

With `CCS(=O)(=O)c1ccc(OC)c(Nc2nccc(-c3c(-c4cccc(NC(=O)c5c(F)cccc5F)c4)nn4ncccc34)n2)c1`, the IC50 is 0.201 µM.

On to `NS(=O)(=O)c1cccc(N=Cc2c(O)[nH]c3ccc(S(=O)(=O)Cc4c(Cl)cccc4Cl)cc23)c1`, for which the IC50 is 0.116 µM.

For `CCn1c(-c2nonc2N)nc2c(-c3cccc(NC(=O)Nc4cccc(C#N)c4)c3)ncc(OCCCN)c21`, the IC50 was 0.17 µM.

As to `CS(=O)(=O)Cc1ccc(Nc2nccc(-c3c(-c4cccc(NC(=O)C5CCCCC5)c4)nn4ncccc34)n2)cc1`, the IC50 is 0.067 µM.

For the compound `CCn1c(-c2nonc2N)nc2c(-c3cccc(NC(=O)Nc4ccc5c(c4)CCC5)c3)ncc(OCCCN)c21`, the IC50 is 0.059 µM.

Consider `Cc1csc(-c2ncc(OC[C@@H](N)Cc3ccccc3)cc2-c2ccc3n[nH]c(C)c3c2)c1`, for which the IC50 was 0.42 µM.

As for `O=C(Nc1cccc(-c2nn3ccccc3c2-c2ccnc(Nc3cccc(-c4cnco4)c3)n2)c1)C1CCCCC1`, the IC50 is 0.612 µM.

As to `CCn1c(-c2nonc2N)nc2c(-c3ccccc3)ncc(OCCCCNCCc3ncc[nH]3)c21`, the IC50 was 0.043 µM.

In the case of `O=C(Nc1c(F)cccc1F)c1cccc(-c2nn3ccccc3c2-c2ccnc(Nc3cccc(-c4cnco4)c3)n2)c1`, the IC50 is 0.134 µM.

Take `COc1cc(Nc2nccc(-c3c(-c4cccc(NC(=O)c5c(F)cccc5F)c4)nn4ncccc34)n2)cc(OC)c1OC`: the IC50 is 0.045 µM.

For the compound `NCCCNc1nc(Nc2cccc(C(N)=O)c2)c2c(=O)[nH]ccc2n1`, the IC50 was 0.967 µM.

For the compound `CCn1c(-c2nonc2N)nc2c(-c3cccc(NC(=O)Nc4cccc(Cl)c4)c3)ncc(OCCCN)c21`, the IC50 is 0.081 µM.

As to `N#Cc1ccc(C(=O)Nc2cc(-c3cccc(O)c3)cc3[nH]ncc23)cc1`, the IC50 is 0.478 µM.

Consider `O=C(NCC(c1ccc(C(F)(F)F)cc1)N1CCCC1)c1cc(-c2ccncc2)c(-c2cccc(O)c2)o1` (stereo not given), for which the IC50 is 0.178 µM.

As for `CCn1c(-c2nonc2N)nc2c(-c3cc4ccccc4s3)ncc(C(=O)N3CCC(N)C3)c21` (stereo not given), the IC50 is 0.089 µM.

On to `CS(=O)(=O)Cc1ccc(Nc2nccc(-c3c(-c4cccc(C(=O)Nc5c(F)cccc5F)c4)nn4ccccc34)n2)cc1`, for which the IC50 was 0.065 µM.

The values are drawn from PubChem BioAssay AID1159588 (Gregory J. Crowther, 2016).
